Reference: patent US7067277B1, “Chimeric G proteins and uses thereof” (H. Lundbeck A/S, priority 1999, dated 2006)

Molecular target: T1, Human NPFF1 (Homo sapiens, UniProt Q9GZQ6)
T1 construct: linearized plasmids or PCR products containing the complete coding region of the genes; expressed in transfected cells; host or cells: Xenopus laevis oocytes (receptor cRNA injected)
Assay: Cl- current recording in Xenopus oocytes expressing GPCR and chimeric G protein
Type: cell-based
Conditions: oocytes injected with 50 nl of 10 mM EGTA
Protocol: Oocytes were harvested from Xenopus laevis and injected with mRNA transcripts as previously described (Quick and Lester, 1994; Smith et al., 1997). Receptor and chimeric G protein α subunit RNA transcripts were synthesized using the T7 polymerase (“Message Machine,” Ambion) from linearized plasmids or PCR products containing the complete coding region of the genes. Oocytes were injected with 5–25 ng synthetic receptor RNA and incubated for 3–8 days at 17 degrees. Three to eight hours prior to recording, oocytes were injected with 500 pg chimeric Gα subunit mRNA. Dual electrode voltage clamp (Axon Instruments Inc.) was performed using 3 M KCl-filled glass microelectrodes having resistances of 1–2 MOhm. Unless otherwise specified, oocytes were voltage clamped at a holding potential of −80 mV. During recordings, oocytes were bathed in continuously flowing (1–3 ml/min) medium containing 96 mM NaCl, 2 mM KCl, 1.8 mM CaCl2, 1 mM MgCl2, and 5 mM HEPES, pH 7.5 (ND96). Drugs were applied by local perfusion from a 10 μl glass capillary tube fixed at a distance of 0.5 mm from the oocyte. Experiments were carried out at room temperature. All values are expressed as mean±standard error of the mean.

T1 sequence (Q9GZQ6 whole entry): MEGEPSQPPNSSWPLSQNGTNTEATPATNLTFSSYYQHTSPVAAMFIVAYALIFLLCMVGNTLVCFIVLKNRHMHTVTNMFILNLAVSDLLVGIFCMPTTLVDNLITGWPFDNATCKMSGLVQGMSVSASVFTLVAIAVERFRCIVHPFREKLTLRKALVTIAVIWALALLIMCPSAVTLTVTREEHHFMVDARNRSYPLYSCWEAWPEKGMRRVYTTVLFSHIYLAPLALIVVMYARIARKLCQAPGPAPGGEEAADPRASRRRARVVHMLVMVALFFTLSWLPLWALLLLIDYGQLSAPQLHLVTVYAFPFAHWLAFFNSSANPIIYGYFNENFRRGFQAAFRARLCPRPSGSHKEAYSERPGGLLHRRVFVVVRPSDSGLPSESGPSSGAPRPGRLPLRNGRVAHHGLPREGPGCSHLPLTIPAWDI

For `O=C(O)CN(CCOCCOCCN(CC(=O)O)CC(=O)O)CC(=O)O` [EGTA, reference compound], the “currents stimulated by NPFF in oocytes expressing NPFF1 and cGαq/z5” value was “blocked”.
